This passage reports zones of inhibition and MIC results from patent US7893196B2, “Polypeptides having antimicrobial activity and polynucleotides encoding same” (Novozymes Aderium Biotech A/S, priority 2004, dated 2011).

What all share (assay type): cell-based
One assay relates to B. subtilis ATCC 6633. The assay is described as follows: Radial diffusion assay. Particulars: up-concentrated S. cerevisiae supernatants. How it is done:
(§1) The supernatants described above in Example 10 were analyzed in a radial diffusion assay following a previously published protocol for detection of antimicrobial activity (Lehrer et al. (1991), Ultra sensitive assays for endogenous antimicrobial polypeptides, J Immunol Methods 137: 167-173). Target bacteria (10^6 colony forming units (CFU)) were added to 10 ml of underlay agarose (1% low electro-endosmosis agarose, 0.03% Trypticase soy broth, 10 mM sodium phosphate, pH 7.4, 37 degrees Celsius). Suspension was solidified on an INTEGRID Petri Dish (Becton Dickinson Labware, NJ). A 3 mm Gel Puncher was used to make holes in the underlay agarose (Amersham Pharmacia Biotech, Sweden). Samples were added to the holes and incubated at 37 degrees Celsius, 3 hours. An overlay was poured on top and the plate was incubated overnight (LB media, 7.5% Agar). Antimicrobial activity was seen as bacterial clearing zones around the wells. Living cells was counterstained by adding 10 ml, 0.2 mM MTT (3-(4,5-Dimethylthiazol-2-yl)-2,5-diphenyltetrazolium bromide Thiazolyl blue). All standard protocols has been described elsewhere (Sambrook, Fritsch, and Maniatis, 1989).
(§2) The results in Table 2 show zones of inhibition of up-concentrated samples against three ATCC strains.

The next assay relates to M. luteus ATCC 9341. Put plainly: Radial diffusion assay. Particulars: up-concentrated S. cerevisiae supernatants. How it is done:
as §1, §2

The next assay concerns S. carnosus ATCC 51365. Put plainly: Radial diffusion assay. Particulars: up-concentrated S. cerevisiae supernatants. How it is done: as §1, §2
For assay [1], the system named is Staphylococcus aureus, ATCC 29213 (MSSA). The assay is described as follows: MIC microdilution assay (NCCLS/CLSI). The settings on record: tested 0.06-32 μg/ml. How it is done:
(§3) Purified Oystrisin and Piceasin were evaluated for antimicrobial activity in a microdillution assay. The Minimal Inhibitory Concentration (MIC) was determined following the NCCLS/CLSI guidelines from CLSI (Clinical and Laboratory Standards Institute).
(§4) Oystrisin and Piceasin were tested at the following concentrations: 32; 16; 8; 4; 2; 1; 0.50; 0.25; 0.13; and 0.06 μg/ml.
(Dilution methods test growth across graded concentrations, often in twofold steps.)

The test system of assay [2] is Staphylococcus aureus, ATCC 43300 (MRSA). Put plainly: MIC microdilution assay (NCCLS/CLSI). Particulars: tested 0.06-32 μg/ml. How it is done:
as §3, §4

Assay [3] deals with Staphylococcus carnosus, ATCC 51365. Put plainly: MIC microdilution assay (NCCLS/CLSI). The settings on record: tested 0.06-32 μg/ml. How it is done:
as §3, §4

Assay [4] relates to Staphylococcus epidermidis, ATCC 12228. Put plainly: MIC microdilution assay (NCCLS/CLSI). Particulars: tested 0.06-32 μg/ml. How it is done: as §3, §4
Assay [5] relates to Streptococcus pneumoniae, ATCC 49619. The assay is described as follows: MIC microdilution assay (NCCLS/CLSI). Particulars: tested 0.06-32 μg/ml. How it is done: as §3, §4
Assay [6] has as its system Streptococcus pyogenes, ATCC 12344. The assay is described as follows: MIC microdilution assay (NCCLS/CLSI). The settings on record: tested 0.06-32 μg/ml. How it is done: as §3, §4

Turning to “Gibbosin: the polypeptide shown as amino acids 1 to 38 of SEQ ID NO:6; Mesobuthus gibbosus defensin (MKTIVLLFVLALVFCTLEMGMVEAGFGCPFNQGRCHRH; listed as Mesobuthus gibbosus)”, the zones of inhibition was 8 mm in the assay with B. subtilis ATCC 6633, 6 mm in the assay with M. luteus ATCC 9341 and 9 mm with S. carnosus ATCC 51365.
As for “Oystrisin: the polypeptide shown as amino acids 1 to 43 of SEQ ID NO:8; Crassostrea gigas defensin (MKVFVLLTLAVLLMVSADMAFAGFGCPGNQLKCNNHCKSISCR; Crassostrea gigas)”, the MIC (as a rule, the lowest concentration found to suppress growth) in assay [1] is 32 µg/mL; in [2], 16 µg/mL; in [3], 0.5 µg/mL; in assay [4] it was 32 µg/mL; in assay [5], 0.13 µg/mL; in assay [6], 0.03 µg/mL.
Regarding “Piceasin: the polypeptide shown as amino acids 1 to 40 of SEQ ID NO:2; Picea glauca defensin (MKFTISIIAALAFFAQGIVAAPAPIPEAAAVAAPEAEPKA; listed as Picea glauca)”, the MIC in assay [1] was above 32 µg/mL; in assay [2], above 32 µg/mL; in assay [3] it was 16 µg/mL; in [4] it was above 32 µg/mL; in [5] it was 16 µg/mL; in [6], 1 µg/mL.
In the case of “Virgisin-1: the polypeptide shown as amino acids 1 to 40 of SEQ ID NO:4; Crassostrea virginica defensin (MKVFVLLTIAVMLMVSADVALAGFGCPLNRYQCHSHCQSI; listed as Crassostrea virginica)”, the zones of inhibition in the assay on B. subtilis ATCC 6633 came out at 6 mm; in the assay on M. luteus ATCC 9341, 5 mm; in the assay on S. carnosus ATCC 51365 it was 7 mm.
For “Virgisin-2: the polypeptide shown as amino acids 1 to 42 of SEQ ID NO:10; Crassostrea virginica defensin (MKVFVLLTIAVMLLVSADVATADNGCPRRPRICHNRCIYKGR; listed as Crassostrea virginica)” the same measures were 5 mm, 0 mm and 8 mm.
